Experimental data published in patent US4094980A, “N-[1-(3',4'-methylenedioxy-phenyl)-propyl-(2)]-N'-phenyl-piperazines and salts thereof” (Boehringer Ingelheim GmbH, priority 1974, dated 1978).

How the values were obtained:
[1] = system: total serum cholesterol; experiment: Reduction of serum cholesterol level (total serum cholesterol, Liebermann-Burchard auto-analyzer); format: in vivo, male laboratory rats; conditions: rat
Protocol: 1. Reduction of serum cholesterol level
85 male laboratory rats having a body weight of about 250 gm. The animals were individually kept in Makrolon-cages under controlled conditions. Food and water were freely accessible to the animals at all times, except on the day on which the blood samples were taken.
The test compounds were administered once daily per os by means of an esophageal sound.
Determination of total cholesterol in serum (mgm/100 ml) with the auto-analyzer according to Liebermann-Burchard (see J. Levine et al, Technicon-Symposium, 1967, Vol. 1, pg. 25).
The total serum cholesterol was determined in all test animals prior to the beginning of the test (day O), as well as on the 8th, 14th and 21st day. The blood sample was taken from the retrobulbar venous plexus. The animals were fasted for about 16 hours prior to determination of the serum cholesterol.

[2] = system: adult laboratory mice of the NMRI-strain; experiment: CNS-Depression: Ataxia (atactic walking); format: in vivo; conditions: po, mouse; dose at which ataxia occurs in 50% of the animals; Probit-method
Protocol: A statistically significant number of adult laboratory mice of the NMRI-strain are used as the test animals. The test compound is administered perorally as a suspension in tylose by means of an esophageal sound, and the treated animal is observed for evidence of atactic (uncoordinated) walking. The test is repeated at varying dosage levels, and a median effective dose (ED50) is determined by the Probit-method, i.e. the dose at which ataxia occurs in 50% of the animals.

[3] = system: adult laboratory mice of the NMRI-strain; experiment: CNS-Depression: Sliding test (loss of holding reflex on inclined glass plate); format: in vivo; conditions: po, mouse; dose at which 50% of animals begin to slide off the glass plate; Probit-method
Protocol: A statistically significant number of adult laboratory mice of the NMRI-strain are used as test animals. The test compound is administered perorally as a suspension in tylose by means of an esophageal sound, and the animal is placed on an inclined plate of glass. If the administered dose of the test compound has a CHS-depressing effect upon the animal, the treated mouse loses its normal holding reflex and slides off the plate. The test is repeated at varying dosage levels, and a median effective dose (ED50) is determined by the so-called Probit-method, i.e. the dose at which 50% of the test animals begin to slide off the glass plate.

[4] = day 0 (prior to the beginning of the test, baseline), group of 25 mgm/kg once daily per os
[5] = day 8, 25 mgm/kg once daily per os
[6] = day 14, 25 mgm/kg once daily per os
[7] = day 21, 25 mgm/kg once daily per os
[8] = day 0 (prior to the beginning of the test, baseline), group of 50 mgm/kg once daily per os
[9] = day 8, 50 mgm/kg once daily per os
[10] = day 14, 50 mgm/kg once daily per os
[11] = day 21, 50 mgm/kg once daily per os

Row | Structure (SMILES) | Average value of total serum cholesterol [1, 4] | Average value of total serum cholesterol [1, 5] | Average value of total serum cholesterol [1, 6] | Average value of total serum cholesterol [1, 7] | ED50 [2] | ED50 [3] | Average value of total serum cholesterol [1, 8] | Average value of total serum cholesterol [1, 9] | Average value of total serum cholesterol [1, 10] | Average value of total serum cholesterol [1, 11]
1 | CC(Cc1ccc2c(c1)OCO2)N1CCN(c2ccccc2Cl)CC1 (stereo not drawn) [Compound C, n-[1-(3,4-methylenedioxy-phenyl)-propyl(2)]-N'-(2-chlorophenyl)-piperazine] | 38.3 mgm/100 ml | 31.7 mgm/100 ml | 24.3 mgm/100 ml | 26.2 mgm/100 ml | 2.2 mg/kg | 2.2 mg/kg |  |  |  | 
2 | Cc1cccc(C)c1N1CCN(C(C)Cc2ccc3c(c2)OCO3)CC1 (stereo not drawn) [E, n-[1-(3,4-methylenedioxy-phenyl)-propyl(2)]-N'-(2,6-dimethyl-phenyl)-piperazine] |  |  |  |  | 105 mg/kg | 25 mg/kg | 107.3 mgm/100 ml | 71.2 mgm/100 ml | 61.7 mgm/100 ml | 63.5 mgm/100 ml
3 | CC(Cc1ccc2c(c1)OCO2)N1CCN(c2ccc(Cl)cc2Cl)CC1 (stereo not drawn) [A, n-[1-(3,4-methylenedioxy-phenyl)-propyl-(2)]-N'-(2,4-dichloro-phenyl)-piperazine] | 96.7 mgm/100 ml | 27.5 mgm/100 ml | 12.5 mgm/100 ml | 13.0 mgm/100 ml | 160 mg/kg | 190 mg/kg |  |  |  | 
4 | COc1ccc(N2CCN(C(C)Cc3ccc4c(c3)OCO4)CC2)c(C)c1 (stereo not drawn) [B, n-[1-(3,4-methylenedioxy-phenyl)-propyl(2)]-N'-(2-methyl-4-methoxy-phenyl)-piperazine] | 97.9 mgm/100 ml | 35.2 mgm/100 ml | 21.3 mgm/100 ml | 21.2 mgm/100 ml | 120 mg/kg | 960 mg/kg |  |  |  | 
5 | COc1ccccc1N1CCN(C(C)Cc2ccc3c(c2)OCO3)CC1 (stereo not drawn) [Compound D] |  |  |  |  | 39 mg/kg | > 14 mg/kg | 112.9 mgm/100 ml | 87.3 mgm/100 ml | 86.3 mgm/100 ml | 82.1 mgm/100 ml
